# pIC50: −log10 of the molar value.
# Key:
# [1] = tested on: T47D; test: Anticancer activity against human T47D cells assessed as inhibition of tumor cell proliferation after 48 hrs by MTT assay; type: functional, cell-based
# [2] = tested on: MCF7; test: Anticancer activity against human MCF7 cells assessed as inhibition of tumor cell proliferation after 48 hrs by MTT assay; type: functional, cell-based; conditions: MCF7, 48 h
# [3] = tested on: HeLa; test: Anticancer activity against human HeLa cells assessed as inhibition of tumor cell proliferation after 48 hrs by MTT assay; type: functional, cell-based
# [4] = tested on: Ishikawa; test: Anticancer activity against human Ishikawa cells assessed as inhibition of tumor cell proliferation after 48 hrs by MTT assay; type: functional, cell-based
# [5] = tested on: Staphylococcus aureus; test: Antimicrobial activity against Staphylococcus aureus ATCC 6538 assessed as inhibition zone after 24 hrs by agar well diffusion method; type: functional; also: test concentration or dose not given here
# [6] = tested on: Escherichia coli; test: Antimicrobial activity against Escherichia coli ATCC 11229 assessed as inhibition zone after 24 hrs by agar well diffusion method; type: functional; also: test concentration or dose not given here
# [7] = tested on: Candida albicans; test: Antimicrobial activity against Candida albicans ATCC 10231 assessed as inhibition zone after 24 hrs by agar well diffusion method; type: functional; also: test concentration or dose not given here
# [8] = biological target: T1, Tyrosine-protein phosphatase non-receptor type 1 (Homo sapiens, UniProt P18031); test: Inhibition of PTP-1B (unknown origin) using pNPP substrate measured after 30 mins; conditions: for pIC50: read-out: IC50
# T1 sequence (P18031 whole entry): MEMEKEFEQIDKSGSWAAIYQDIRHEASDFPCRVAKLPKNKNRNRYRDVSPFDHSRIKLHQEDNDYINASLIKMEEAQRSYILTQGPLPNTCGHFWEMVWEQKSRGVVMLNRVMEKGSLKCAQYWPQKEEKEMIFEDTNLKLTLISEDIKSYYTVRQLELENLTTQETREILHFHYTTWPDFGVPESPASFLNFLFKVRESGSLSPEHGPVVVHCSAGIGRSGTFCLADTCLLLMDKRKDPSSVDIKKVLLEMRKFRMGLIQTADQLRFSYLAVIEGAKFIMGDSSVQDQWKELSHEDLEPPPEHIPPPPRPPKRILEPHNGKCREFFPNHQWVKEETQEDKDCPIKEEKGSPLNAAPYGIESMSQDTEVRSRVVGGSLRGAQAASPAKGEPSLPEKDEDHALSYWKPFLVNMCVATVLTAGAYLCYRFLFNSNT
compound,measurement,setting,value
CCOC(=O)c1c(N)sc(/N=C/c2ccc(C)cc2)c1C(=O)OCC,pIC50,[1],4.43
same,pIC50,[2],5.05
same,pIC50,[3],4.38
same,pIC50,[4],4.28
same,diameter of the inhibition zone (DIZ),[5],10 mm
same,diameter of the inhibition zone (DIZ),[6],<5.5 mm
same,diameter of the inhibition zone (DIZ),[7],8 mm
same,IC50,[8],Not Active
CCOC(=O)c1c(N)sc(/N=C/c2ccc(OC)cc2)c1C(=O)OCC,pIC50,[1],4.50
same,pIC50,[2],4.79
same,pIC50,[3],3.72
same,pIC50,[4],3.97
same,diameter of the inhibition zone (DIZ),[5],9 mm
same,diameter of the inhibition zone (DIZ),[6],<5.5 mm
same,diameter of the inhibition zone (DIZ),[7],9 mm
same,IC50,[8],Not Active
CCOC(=O)c1c(N)sc(/N=C/c2ccc([N+](=O)[O-])cc2)c1C(=O)OCC,pIC50,[1],5.64
same,pIC50,[2],5.89
same,pIC50,[3],4.85
same,pIC50,[4],3.85
same,diameter of the inhibition zone (DIZ),[5],8.5 mm
same,diameter of the inhibition zone (DIZ),[6],<5.5 mm
same,diameter of the inhibition zone (DIZ),[7],<5.5 mm
same,pIC50,[8],5.19
COc1cccc2c1C(=O)c1c(O)c3c(c(O)c1C2=O)C[C@@](O)(C(=O)CO)C[C@@H]3O[C@H]1C[C@H](N)[C@H](O)[C@H](C)O1 [DOXORUBICIN],pIC50,[1],4.81
same,pIC50,[2],5.17
same,pIC50,[3],5.15
same,pIC50,[4],5.04
CCOC(=O)c1c(N)sc(N)c1C(=O)OCC,pIC50,[1],4.94
same,pIC50,[2],4.73
same,pIC50,[3],4.39
same,pIC50,[4],4.33
same,diameter of the inhibition zone (DIZ),[5],10 mm
same,diameter of the inhibition zone (DIZ),[6],<5.5 mm
same,diameter of the inhibition zone (DIZ),[7],<5.5 mm
same,IC50,[8],Not Active
CCOC(=O)c1c(N)sc(/N=C/c2cccs2)c1C(=O)OCC,pIC50,[1],5.15
same,pIC50,[2],4.58
same,pIC50,[3],4.67
same,pIC50,[4],4.40
same,diameter of the inhibition zone (DIZ),[5],10 mm
same,diameter of the inhibition zone (DIZ),[6],<5.5 mm
same,diameter of the inhibition zone (DIZ),[7],<5.5 mm
same,pIC50,[8],4.83
CCOC(=O)c1c(N)sc(/N=C/c2ccccc2)c1C(=O)OCC,pIC50,[1],4.52
same,pIC50,[2],5.21
same,pIC50,[3],4.51
same,pIC50,[4],4.42
same,diameter of the inhibition zone (DIZ),[5],9 mm
same,diameter of the inhibition zone (DIZ),[6],<5.5 mm
same,diameter of the inhibition zone (DIZ),[7],8 mm
same,IC50,[8],Not Active
CCOC(=O)c1c(N)sc(/N=C/c2ccc(F)cc2)c1C(=O)OCC,pIC50,[1],4.65
same,pIC50,[2],4.65
same,pIC50,[3],4.51
same,pIC50,[4],4.49
same,diameter of the inhibition zone (DIZ),[5],10 mm
same,diameter of the inhibition zone (DIZ),[6],<5.5 mm
same,diameter of the inhibition zone (DIZ),[7],8 mm
same,IC50,[8],Not Active
CC1(C)S[C@@H]2[C@H](NC(=O)[C@H](N)c3ccccc3)C(=O)N2[C@H]1C(=O)O [AMPICILLIN],diameter of the inhibition zone (DIZ),[6],19 mm
same,diameter of the inhibition zone (DIZ),[7],14 mm
CCOC(=O)c1c(N)sc(/N=C/c2ccco2)c1C(=O)OCC,pIC50,[1],4.83
same,pIC50,[2],4.21
same,pIC50,[3],4.33
same,pIC50,[4],4.16
same,diameter of the inhibition zone (DIZ),[5],10.5 mm
same,diameter of the inhibition zone (DIZ),[6],<5.5 mm
same,diameter of the inhibition zone (DIZ),[7],<5.5 mm
same,IC50,[8],Not Active
CCOC(=O)c1c(N)sc(/N=C/c2ccc(N(C)C)cc2)c1C(=O)OCC,pIC50,[1],4.78
same,pIC50,[2],5.24
same,pIC50,[3],3.88
same,pIC50,[4],4.14
same,diameter of the inhibition zone (DIZ),[5],11.5 mm
same,diameter of the inhibition zone (DIZ),[6],<5.5 mm
same,diameter of the inhibition zone (DIZ),[7],8 mm
same,pIC50,[8],5.14
CCOC(=O)c1c(N)sc(/N=C/c2ccc(Br)cc2)c1C(=O)OCC,pIC50,[1],4.88
same,pIC50,[2],4.90
same,pIC50,[3],4.59
same,pIC50,[4],4.34
same,diameter of the inhibition zone (DIZ),[5],<5.5 mm
same,diameter of the inhibition zone (DIZ),[6],<5.5 mm
same,diameter of the inhibition zone (DIZ),[7],<5.5 mm
same,pIC50,[8],5.18
C[C@@H]1[C@H](O)[C@@H](C)/C=C/C=C/C=C/C=C/C=C/C=C/C=C/[C@H](O[C@@H]2O[C@H](C)[C@@H](O)[C@H](N)[C@@H]2O)C[C@@H]2O[C@](O)(C[C@@H](O)C[C@@H](O)[C@H](O)CC[C@@H](O)C[C@@H](O)CC(=O)O[C@H]1C)C[C@H](O)[C@H]2C(=O)O [AMPHOTERICIN B],diameter of the inhibition zone (DIZ),[5],15 mm
CCOC(=O)c1c(N)sc(/N=C/c2ccc([N+](=O)[O-])o2)c1C(=O)OCC,pIC50,[1],4.80
same,pIC50,[2],5.62
same,pIC50,[3],5.33
same,pIC50,[4],5.12
same,diameter of the inhibition zone (DIZ),[5],22 mm
same,diameter of the inhibition zone (DIZ),[6],16 mm
same,diameter of the inhibition zone (DIZ),[7],>22 mm
same,pIC50,[8],5.15
CCOC(=O)c1c(N)sc(/N=C/c2ccc(Cl)cc2)c1C(=O)OCC,pIC50,[1],4.92
same,pIC50,[2],5.17
same,pIC50,[3],4.60
same,pIC50,[4],4.57
same,diameter of the inhibition zone (DIZ),[5],<5.5 mm
same,diameter of the inhibition zone (DIZ),[6],<5.5 mm
same,diameter of the inhibition zone (DIZ),[7],<5.5 mm
same,IC50,[8],Not Active
CCOC(=O)c1c(N)sc(/N=C/c2ccncc2)c1C(=O)OCC,pIC50,[1],5.07
same,pIC50,[2],4.04
same,pIC50,[3],4.45
same,pIC50,[4],3.92
same,diameter of the inhibition zone (DIZ),[5],<5.5 mm
same,diameter of the inhibition zone (DIZ),[6],<5.5 mm
same,diameter of the inhibition zone (DIZ),[7],7 mm
same,IC50,[8],Not Active
